Source: patent US20100041597A1, “PEPTIDES TARGETED TO PROTEIN KINASE C ISOFORMS AND USES THEREOF” (priority 2005, published 2010)
Values belong to the substance of their own block, whether it stands above or below them.

Experiments:
PKC-α [1] = biological target: T1, PKC-α (Rattus norvegicus, UniProt P05696); experiment: In vitro competition with anti-PKC-α antibody on blotted cell lysate, Protocol A, C6Cx43 cells; format: binding
T1 construct: Cell lysates from either IMR-32 (human neuroblastoma) cells or C6Cx43 cells; endogenous in cells; host or cells: C6Cx43 (rat glioma transfected with connexin 43)
Method: The ability of the peptides to interfere with the binding of a PKC-α-specific monoclonal antibody to PKC-α was determined using the following protocol.
Cell lysates from either IMR-32 (human neuroblastoma) cells or C6Cx43 cells (rat glioma transfected cells overexpressing connexin 43) were obtained using standard protocols and the proteins of the lysate were separated by SDS PAGE electrophoresis and electrotransferred onto a nitrocellulose membrane. […] A primary polyclonal antibody specific for PKC-α (Santa Cruz Biotechnology, Inc., CA) was then added (15 μg/ml) and the membrane incubated for a further 45 minutes. Finally, the primary antibody was detected with a secondary antibody conjugated to alkaline phosphatase using standard procedures. The intensity of the band corresponding to PKC-α was assessed by scanning and densitometry using the Gel-Pro software (Media Cybernetics) to obtain relative band intensities (average of 3 replicas). Control assays were conducted as described above except that blocking buffer without peptide was used.
The results are expressed as relative band intensity and as a percentage of the intensity of the corresponding band in the control assay (“Relative intensity (%)”). “% inhibition” relates to the percentage of the PKC-α band that is inaccessible to the antibody.

PKC-β = experiment: In vitro competition with anti-PKC-β antibody, Protocol A, IMR-32 cells; format: binding, human; conditions: for Band Intensity / Inhibition (%) / Relative Intensity (%): PKC-β, IMR-32, Table 6
Method: Cell lysates from either IMR-32 (human neuroblastoma) cells or C6Cx43 cells (rat glioma transfected cells overexpressing connexin 43) were obtained using standard protocols and the proteins of the lysate were separated by SDS PAGE electrophoresis and electrotransferred onto a nitrocellulose membrane. The membrane was incubated for 30 minutes in blocking buffer (TBST) containing the test peptide at either 5× or 20× the concentrations of the primary antibody. A primary polyclonal antibody specific for PKC-α (Santa Cruz Biotechnology, Inc., CA) was then added (15 μg/ml) and the membrane incubated for a further 45 minutes. Finally, the primary antibody was detected with a secondary antibody conjugated to alkaline phosphatase using standard procedures. The intensity of the band corresponding to PKC-α was assessed by scanning and densitometry using the Gel-Pro software (Media Cybernetics) to obtain relative band intensities (average of 3 replicas). Control assays were conducted as described above except that blocking buffer without peptide was used.
Peptides PRE 1, PRE 2 and PRE 3 (see Table 3) were tested for their ability to interfere with the binding of a PKC-β-specific polyclonal antibody (Santa Cruz Biotechnology, Inc.) to PKC-β using the general protocol described in Example 1. […] It is worth noting in this regard that PKC-α and PKC-β belong to the same sub-group of PKCs (cPKCs).

PKC-α [2] = biological target: T2, PKC-α (Homo sapiens, UniProt P17252); experiment: Kinase-Glo Luminescent Kinase Assay, substrate myelin basic protein; format: biochemical; conditions: for inhibition at 150 µM: PRE 4 150 μM; for inhibition at 300 µM: PRE 4 300 μM; for inhibition at 600 µM: PRE 4 600 μM
Method: The ability of peptide PRE 4 (see Table 3) to inhibit the activity of PKC-α was tested using increasing concentrations of PRE 4 and the Kinase-Glo™ Luminescent Kinase Assay (Promega, Cat # V6712/3/4) following the manufacturer's instructions. Briefly, the assay is based on the Luciferase luminescent reaction with ATP. The substrate was myelin basic protein (MBP, a classical substrate of the PKC family). ATP was added to the PKC-α reaction solution at a given concentration and the remaining ATP was measured by luminescence. Luminescence of blank solutions, ATP provided at the beginning of the reaction and PKC-α activity in the presence or absence of PRE 4 were measured.
Blanks are subtracted from all values.
ATP remaining in all reactions was subtracted from the ATP values at the start=relative enzyme activity (Ea).
The relative activities were all measured and the Ea in the presence of PRE 4 are reported relative to the Ea of PKC-α alone taken as 100. The difference between 100 and the % Ea of PKC-α exposed to PRE 4 represents the relative level of inhibition.

PKC-α [3] = biological target: T2, PKC-α; experiment: Antibody competitive binding assay with fluorescent antibody (FIG. 4); conditions: PRE at 20× concentration
Method: FIG. 4 presents data from conventional antibody competitive binding assays using PKC-α versus a representative battery of PKC isoforms (commercially available). PKC isoforms representing the three subgroups of the PKC family were assessed (classical PKCs=PKCalpha; novel PKCs=PKCdelta and epsilon; atypical PKCs=PKCzeta). Controls received the appropriate PKC isoform fluorescent antibody. Treated samples received the PRE sequence from PhGα1 (20× concentration) and the same PKC antibody. Specific affinity to PKC-α in the treated sample by the PRE will therefore decrease the amount of binding by the fluorescent antibody, represented by a decrease in fluorescent intensity in the treated sample.

- Band Intensity (PKC-α [1]; 75 μg, Table 5): 0.909
- inhibition at 0.075 mg (PKC-α [1]; 75 μg, Table 5): 0%
- remaining activity at 0.075 mg (PKC-α [1]; 75 μg, Table 5, read-out: Relative Intensity (%)): 98%
- Band Intensity (PKC-α [1]; 300 μg, Table 5): 0.888
- inhibition at 0.3 mg (PKC-α [1]; 300 μg, Table 5): 0%
- remaining activity at 0.3 mg (PKC-α [1]; 300 μg, Table 5, read-out: Relative Intensity (%)): 95.8%
- Band Intensity (PKC-α [1]; 600 μg, Table 5): 0.889
- inhibition at 0.6 mg (PKC-α [1]; 600 μg, Table 5): 0%
- remaining activity at 0.6 mg (PKC-α [1]; 600 μg, Table 5, read-out: Relative Intensity (%)): 95.9%
- Band Intensity (PKC-α [1]; 3.75 mg, Table 5): 0.603
- remaining activity at 3.75 mg (PKC-α [1]; 3.75 mg, Table 5, read-out: Relative Intensity (%)): 105%
- Band Intensity (PKC-α [1]; 5.25 mg, Table 5): 0.599
- remaining activity at 5.25 mg (PKC-α [1]; 5.25 mg, Table 5, read-out: Relative Intensity (%)): 105%
- Band Intensity (PKC-α [1]; 7.5 mg, Table 5): 0.589
- inhibition at 7.5 mg (PKC-α [1]; 7.5 mg, Table 5): 0%
- remaining activity at 7.5 mg (PKC-α [1]; 7.5 mg, Table 5, read-out: Relative Intensity (%)): 103%
Substance: Ac-AKGIQEVKGGDAQNLIGISI-NH2 [PRE 3]
- effect on antibody binding to PKC-β (PKC-β): did not show an effect on antibody binding to PKC-β
- Band Intensity (PKC-β; 75 μg): 1.900
- Inhibition (%) (PKC-β; 75 μg): 0.0%
- Relative Intensity (%) (PKC-β; 75 μg): 102.4%
- Band Intensity (PKC-β; 300 μg): 1.900
- Inhibition (%) (PKC-β; 300 μg): 0.0%
- Relative Intensity (%) (PKC-β; 300 μg): 102.4%
- Band Intensity (PKC-β; 600 μg): 1.847
- Inhibition (%) (PKC-β; 600 μg): 0.0%
- Relative Intensity (%) (PKC-β; 600 μg): 99.6%

- inhibition at 150 µM (PKC-α [2]; Experiment 1): 6.15%
- inhibition at 150 µM (PKC-α [2]; Experiment 2): 28.9%
- inhibition at 150 µM (PKC-α [2]; Experiment 3): 40.1%
- inhibition at 300 µM (PKC-α [2]; Experiment 1): 9.76%
- inhibition at 300 µM (PKC-α [2]; Experiment 2): 40.7%
- inhibition at 300 µM (PKC-α [2]; Experiment 3): 35.5%
- inhibition at 600 µM (PKC-α [2]; Experiment 1): 16.4%
- inhibition at 600 µM (PKC-α [2]; Experiment 2): 53.5%
- inhibition at 600 µM (PKC-α [2]; Experiment 3): 41.6%
- effect on fluorescent antibody binding to PKC-α (PKC-α [3]): decrease in antibody binding
Substance: Ac-KDAQNLIGISI-NH2 [PRE 4, Ac-KDAQNLIGISI-NH2]

Substance: RRKKGGKDFVVKR [PRE 1]
- effect on antibody binding to PKC-β (PKC-β): some cross reactivity
- Band Intensity (PKC-β; 75 μg): 0.825
- Inhibition (%) (PKC-β; 75 μg): 28.9%
- Relative Intensity (%) (PKC-β; 75 μg): 71.1%
- Band Intensity (PKC-β; 300 μg): 0.528
- Inhibition (%) (PKC-β; 300 μg): 54.5%
- Relative Intensity (%) (PKC-β; 300 μg): 45.5%
